{"source": "paper PMC7413254", "about": "(Nature Communications, 2020)", "key": {"[1]": {"biological_target": "T1, PfCRT^Ecu1110 (Plasmodium falciparum, UniProt Q9N623, A220S/I356L/K76T/N326D)", "T1 sequence (Q9N623 whole entry A220S/I356L/K76T/N326D)": "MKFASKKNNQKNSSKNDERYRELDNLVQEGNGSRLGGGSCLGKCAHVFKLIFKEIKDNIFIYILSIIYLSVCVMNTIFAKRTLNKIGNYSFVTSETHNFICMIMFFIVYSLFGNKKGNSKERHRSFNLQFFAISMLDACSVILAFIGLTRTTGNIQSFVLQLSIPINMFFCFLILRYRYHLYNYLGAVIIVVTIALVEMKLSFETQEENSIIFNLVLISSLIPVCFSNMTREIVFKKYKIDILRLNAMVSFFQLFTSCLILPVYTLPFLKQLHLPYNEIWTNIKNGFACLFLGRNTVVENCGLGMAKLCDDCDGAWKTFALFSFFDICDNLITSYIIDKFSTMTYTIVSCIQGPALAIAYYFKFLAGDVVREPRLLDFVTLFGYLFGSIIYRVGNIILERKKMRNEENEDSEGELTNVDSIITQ", "test": "cell-based", "assay_type": "cell-based", "conditions": "for Uptake of [3H]CQ (% PfCRTEcu1110 control), trans-stimulation / PfCRT-mediated [3H]CQ transport, trans-stimulation (% PfCRTEcu1110 control): PfCRTEcu1110 oocytes; for Uptake of [3H]CQ (% PfCRTEcu1110 control), trans-stimulation: total [3H]CQ transport, normalised to the oocyte type control; for PfCRT-mediated [3H]CQ transport, trans-stimulation (% PfCRTEcu1110 control): normalised to oocyte type control; for [3H]CQ transport (% PfCRTDd2 control), trans-stimulation, PfCRTEcu1110: PfCRT-mediated component (background subtracted), sheet title says normalised to PfCRTDd2 control, mean ± SEM, SEM", "procedure,_shortened": "(§1)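 Transport measured in Xenopus oocytes expressing the transporters, 1.5 h at 27.5 °C in ND96 pH 5.5 unless noted. For trans-stimulation, VF-6 injected in 25 nL ND96 at pH 5.0–7.0 or Na^+-free (choline) buffer; intracellular levels based on ~400 nL oocyte volume. Ten oocytes per treatment, ≥4 experiments.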"}, "[2]": {"biological_target": "T2, PfNT1 (Plasmodium falciparum, UniProt Q8IDM6)", "T2 construct": "expressed in transfected cells; host or cells: Xenopus laevis oocytes (stage V-VI), cRNA-injected", "test": "cell-based", "assay_type": "cell-based", "conditions": "PfNT1 oocytes, total [3H]CQ transport, normalised to the oocyte type control", "procedure,_shortened": "as §1"}, "[3]": {"biological_target": "T3, PfCRT^Dd2 (Plasmodium falciparum, UniProt Q9N623, A220S/I356T/K76T/M74I/N326S/N75E/Q271E/R371I)", "T3 sequence (Q9N623 whole entry A220S/I356T/K76T/M74I/N326S/N75E/Q271E/R371I)": "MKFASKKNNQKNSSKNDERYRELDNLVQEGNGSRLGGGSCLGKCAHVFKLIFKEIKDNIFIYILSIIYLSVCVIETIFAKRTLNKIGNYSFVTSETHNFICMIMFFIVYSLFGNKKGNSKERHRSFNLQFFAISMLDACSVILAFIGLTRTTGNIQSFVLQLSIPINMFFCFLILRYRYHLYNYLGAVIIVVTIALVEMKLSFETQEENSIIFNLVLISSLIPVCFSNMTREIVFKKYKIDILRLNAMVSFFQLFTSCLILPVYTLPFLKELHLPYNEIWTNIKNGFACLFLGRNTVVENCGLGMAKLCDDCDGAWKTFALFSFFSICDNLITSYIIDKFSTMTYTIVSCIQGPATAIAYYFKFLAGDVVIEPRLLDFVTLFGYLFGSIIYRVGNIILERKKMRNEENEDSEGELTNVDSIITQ", "test": "cell-based", "assay_type": "cell-based", "conditions": "for Uptake of [3H]CQ (% PfCRTDd2 control), trans-stimulation / PfCRT-mediated [3H]CQ transport, trans-stimulation (% PfCRTDd2 control): PfCRTDd2 oocytes; for Uptake of [3H]CQ (% PfCRTDd2 control), trans-stimulation: total [3H]CQ transport, normalised to the oocyte type control; for PfCRT-mediated [3H]CQ transport, trans-stimulation (% PfCRTDd2 control): normalised to oocyte type control; for [3H]CQ transport (% PfCRTDd2 control), trans-stimulation, PfCRTDd2: PfCRT-mediated component (background subtracted), mean ± SEM, SEM", "procedure,_shortened": "as §1"}, "[4]": {"biological_target": "T4, PfCRT^3D7 (Plasmodium falciparum, UniProt Q8IBZ9)", "T4 sequence (Q8IBZ9 59-398)": "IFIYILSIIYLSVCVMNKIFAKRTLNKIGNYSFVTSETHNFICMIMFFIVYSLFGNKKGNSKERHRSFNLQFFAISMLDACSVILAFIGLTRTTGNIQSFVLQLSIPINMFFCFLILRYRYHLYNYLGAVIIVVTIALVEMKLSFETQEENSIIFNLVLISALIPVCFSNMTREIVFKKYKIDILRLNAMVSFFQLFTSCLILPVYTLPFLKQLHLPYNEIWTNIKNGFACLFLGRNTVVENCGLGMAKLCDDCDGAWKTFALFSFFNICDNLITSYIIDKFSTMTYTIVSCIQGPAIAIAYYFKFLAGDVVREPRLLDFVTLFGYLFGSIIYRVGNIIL", "test": "cell-based", "assay_type": "cell-based", "conditions": "PfCRT3D7 oocytes; for Uptake of [3H]CQ (% PfCRT3D7 control), trans-stimulation: total [3H]CQ transport, normalised to the oocyte type control; for PfCRT-mediated [3H]CQ transport, trans-stimulation (% PfCRT3D7 control): normalised to oocyte type control", "procedure,_shortened": "as §1"}, "[5]": {"test_system": "non-expressing oocytes", "assay_type": "cell-based, Xenopus laevis", "conditions": "non-expressing oocytes, total [3H]CQ transport, normalised to the oocyte type control", "procedure,_shortened": "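Oocytes (ten per treatment, ≥4 independent frogs/days) were preloaded by injecting VF-6 in 25 nL ND96 at pH 5.0, 5.5, 6.0 or 7.0, or Na^+-free choline buffer, then uptake run 1.5 h, 27.5 °C, ND96 pH 5.5 by default. Internal concentrations assumed ~400 nL oocyte volume.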"}, "[6]": {"biological_target": "T1, PfCRT^Ecu1110", "test": "[3H]CQ uptake into Xenopus oocytes, cis-inhibition by unlabelled solute", "assay_type": "cell-based", "conditions": "for Uptake of [3H]CQ (% PfCRTEcu1110 control), cis-inhibition / PfCRT-mediated [3H]CQ transport, cis-inhibition (% PfCRTEcu1110 control): PfCRTEcu1110 oocytes; for Uptake of [3H]CQ (% PfCRTEcu1110 control), cis-inhibition: total [3H]CQ transport, normalised to the oocyte type control; for PfCRT-mediated [3H]CQ transport, cis-inhibition (% PfCRTEcu1110 control): background [3H]CQ accumulation subtracted, normalised to oocyte type control", "procedure,_shortened": "(§2)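 Assay buffer ND96 (10 mM MES, 10 mM Tris-base) held at pH 5.5 to mimic vacuole lumen; uptake measured inward from this acidic medium over 1.5 h at 27.5 °C.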"}, "[7]": {"biological_target": "T3, PfCRT^Dd2", "test": "[3H]CQ uptake into Xenopus oocytes, cis-inhibition by unlabelled solute", "assay_type": "cell-based", "conditions": "PfCRTDd2 oocytes, background [3H]CQ accumulation subtracted, normalised to oocyte type control", "procedure,_shortened": "as §2"}, "[8]": {"test_system": "non-expressing oocytes", "test": "cells", "assay_type": "cell-based, Xenopus laevis", "conditions": "non-expressing oocytes, total [3H]CQ transport, normalised to the oocyte type control", "procedure,_shortened": "as §2"}, "[9]": {"biological_target": "T4, PfCRT^3D7", "test": "cell-based", "assay_type": "cell-based", "conditions": "PfCRT3D7 oocytes, total [3H]CQ transport, normalised to the oocyte type control", "from_the_text": "The orientation of PfCRT in the parasite’s DV membrane, and also in the oocyte plasma membrane, is such that its N- and C-termini extend into the cytosol. The oocytes were suspended in a reaction buffer adjusted to pH 5.5 to mimic the pH of the DV lumen[1],[2]. In this scenario, the transport of a substrate via PfCRT from the acidic extracellular solution into the oocyte cytosol[15] is analogous to the parasite’s PfCRT-mediated efflux of a substrate from the acidic DV and into the cytosol. Unless specified otherwise, this is the direction in which substrate transport was measured in the oocyte assays.\nUnless specified otherwise, the transport assays were conducted over 1.5 h at 27.5 °C and the reaction buffer was ND96 (96 mM NaCl, 2 mM KCl, 1 mM MgCl2, 1.8 mM CaCl2, 10 mM MES and 10 mM Tris-base) at pH 5.5.\nTen oocytes were washed twice with the relevant ND96 buffer. […] The assay was terminated by removing the reaction buffer and washing the oocytes with ice-cold ND96 buffer. The oocytes were lysed in 10% (w/v) sodium dodecyl sulfate (SDS) and the radioactivity accumulated within each oocyte was measured with a MicroBeta^2 microplate liquid scintillation analyser (PerkinElmer).\nAt least four independent experiments were performed (on different days and using oocytes from different frogs), and within each experiment measurements were made from ten oocytes per treatment."}, "[10]": {"conditions": "[test solute]i = 45 mM (30 mM for some solutes due to solubility)"}, "[11]": {"conditions": "[test solute]i = 5 mM (intracellular)"}, "[12]": {"conditions": "[test solute]i = 45 mM (intracellular; 30 mM for some solutes due to solubility)"}, "[13]": {"conditions": "[test solute]i = 5 mM (injected)"}}, "note": "Read-outs that look alike come from different tables or passages of the source."}
{"substance": "PPVQ [PQ-4]", "values": [{"measurement": "Uptake of [3H]CQ (% PfCRTEcu1110 control), trans-stimulation", "setting": "[1]; [test solute]i = 5 mM", "value": "124 ± 2.9", "unit": "% PfCRTEcu1110 control"}, {"measurement": "Uptake of [3H]CQ (% PfCRTEcu1110 control), trans-stimulation", "setting": "[1]; [10]", "value": "138 ± 3.2", "unit": "% PfCRTEcu1110 control"}, {"measurement": "PfCRT-mediated [3H]CQ transport, trans-stimulation (% PfCRTEcu1110 control)", "setting": "[1]; [11]", "value": "120 ± 3.2", "unit": "% PfCRTEcu1110 control"}, {"measurement": "PfCRT-mediated [3H]CQ transport, trans-stimulation (% PfCRTEcu1110 control)", "setting": "[1]; [12]", "value": "132 ± 1.1", "unit": "% PfCRTEcu1110 control"}, {"measurement": "[3H]CQ transport (% PfCRTDd2 control), trans-stimulation, PfCRTEcu1110", "setting": "[1]; [13]", "value": "36 ± 1.3", "unit": "% PfCRTEcu1110 control"}, {"measurement": "[3H]CQ transport (% PfCRTDd2 control), trans-stimulation, PfCRTEcu1110", "setting": "[1]; [10]", "value": "40 ± 1.3", "unit": "% PfCRTEcu1110 control"}, {"measurement": "Uptake of [3H]CQ (% PfNT1 control), trans-stimulation", "setting": "[2]; [test solute]i = 5 mM", "value": "100 ± 2.5", "unit": "% PfNT1 control"}, {"measurement": "Uptake of [3H]CQ (% PfNT1 control), trans-stimulation", "setting": "[2]; [10]", "value": "99 ± 3.2", "unit": "% PfNT1 control"}, {"measurement": "Uptake of [3H]CQ (% PfCRTDd2 control), trans-stimulation", "setting": "[3]; [test solute]i = 5 mM", "value": "100 ± 3.2", "unit": "% PfCRTDd2 control"}, {"measurement": "Uptake of [3H]CQ (% PfCRTDd2 control), trans-stimulation", "setting": "[3]; [10]", "value": "115 ± 2.9", "unit": "% PfCRTDd2 control"}, {"measurement": "PfCRT-mediated [3H]CQ transport, trans-stimulation (% PfCRTDd2 control)", "setting": "[3]; [11]", "value": "98 ± 4.2", "unit": "% PfCRTDd2 control"}, {"measurement": "PfCRT-mediated [3H]CQ transport, trans-stimulation (% PfCRTDd2 control)", "setting": "[3]; [12]", "value": "110 ± 1.1", "unit": "% PfCRTDd2 control"}, {"measurement": "[3H]CQ transport (% PfCRTDd2 control), trans-stimulation, PfCRTDd2", "setting": "[3]; [13]", "value": "98 ± 4.2", "unit": "% PfCRTDd2 control"}, {"measurement": "[3H]CQ transport (% PfCRTDd2 control), trans-stimulation, PfCRTDd2", "setting": "[3]; [10]", "value": "110 ± 1.1", "unit": "% PfCRTDd2 control"}, {"measurement": "Uptake of [3H]CQ (% PfCRT3D7 control), trans-stimulation", "setting": "[4]; [test solute]i = 5 mM", "value": "134 ± 2.5", "unit": "% PfCRT3D7 control"}, {"measurement": "Uptake of [3H]CQ (% PfCRT3D7 control), trans-stimulation", "setting": "[4]; [10]", "value": "165 ± 4.2", "unit": "% PfCRT3D7 control"}, {"measurement": "PfCRT-mediated [3H]CQ transport, trans-stimulation (% PfCRT3D7 control)", "setting": "[4]; [11]", "value": "129 ± 2.1", "unit": "% PfCRT3D7 control"}, {"measurement": "PfCRT-mediated [3H]CQ transport, trans-stimulation (% PfCRT3D7 control)", "setting": "[4]; [12]", "value": "159 ± 5.2", "unit": "% PfCRT3D7 control"}, {"measurement": "Uptake of [3H]CQ (% non-expressing oocyte control), trans-stimulation", "setting": "[5]; [test solute]i = 5 mM", "value": "99 ± 3.4 % non-expressing oocyte control"}, {"measurement": "Uptake of [3H]CQ (% non-expressing oocyte control), trans-stimulation", "setting": "[5]; [10]", "value": "100 ± 2.7 % non-expressing oocyte control"}, {"measurement": "Uptake of [3H]CQ (% PfCRTEcu1110 control), cis-inhibition", "setting": "[6]; [test solute] = 0.5 mM", "value": "67 ± 2.1", "unit": "% PfCRTEcu1110 control"}, {"measurement": "Uptake of [3H]CQ (% PfCRTEcu1110 control), cis-inhibition", "setting": "[6]; [test solute] = 1 mM", "value": "56 ± 2.8", "unit": "% PfCRTEcu1110 control"}, {"measurement": "Uptake of [3H]CQ (% PfCRTEcu1110 control), cis-inhibition", "setting": "[6]; [test solute] = 2 mM", "value": "48 ± 4.8", "unit": "% PfCRTEcu1110 control"}, {"measurement": "PfCRT-mediated [3H]CQ transport, cis-inhibition (% PfCRTEcu1110 control)", "setting": "[6]; [test solute] = 0.5 mM", "value": "61 ± 3.1", "unit": "% PfCRTEcu1110 control"}, {"measurement": "PfCRT-mediated [3H]CQ transport, cis-inhibition (% PfCRTEcu1110 control)", "setting": "[6]; [test solute] = 1 mM", "value": "51 ± 1.3", "unit": "% PfCRTEcu1110 control"}, {"measurement": "PfCRT-mediated [3H]CQ transport, cis-inhibition (% PfCRTEcu1110 control)", "setting": "[6]; [test solute] = 2 mM", "value": "41 ± 3.2", "unit": "% PfCRTEcu1110 control"}, {"measurement": "[3H]CQ transport (% PfCRTEcu1110 control), cis-inhibition, PfCRTEcu1110", "setting": "[6]; cis-inhibition, [test solute] = 2 mM, PfCRT-mediated component (background subtracted), sheet title says normalised to PfCRTDd2 control, mean ± SEM, SEM", "value": "13 ± 0.6", "unit": "% PfCRTEcu1110 control"}, {"measurement": "PfCRT-mediated [3H]CQ transport, cis-inhibition (% PfCRTDd2 control)", "setting": "[7]; [test solute] = 0.5 mM", "value": "68 ± 3.7", "unit": "% PfCRTDd2 control"}, {"measurement": "PfCRT-mediated [3H]CQ transport, cis-inhibition (% PfCRTDd2 control)", "setting": "[7]; [test solute] = 1 mM", "value": "59 ± 2.1", "unit": "% PfCRTDd2 control"}, {"measurement": "PfCRT-mediated [3H]CQ transport, cis-inhibition (% PfCRTDd2 control)", "setting": "[7]; [test solute] = 2 mM", "value": "37 ± 2.0", "unit": "% PfCRTDd2 control"}, {"measurement": "Uptake of [3H]CQ (% non-expressing oocyte control), cis-inhibition", "setting": "[8]; [test solute] = 1 mM", "value": "99 ± 5.3 % non-expressing oocyte control"}, {"measurement": "Uptake of [3H]CQ (% non-expressing oocyte control), cis-inhibition", "setting": "[8]; [test solute] = 2 mM", "value": "100 ± 3.7 % non-expressing oocyte control"}, {"measurement": "Uptake of [3H]CQ (% PfCRT3D7 control), cis-inhibition", "setting": "[9]; [test solute] = 0.5 mM", "value": "99 ± 3.9", "unit": "% PfCRT3D7 control"}, {"measurement": "Uptake of [3H]CQ (% PfCRT3D7 control), cis-inhibition", "setting": "[9]; [test solute] = 1 mM", "value": "99 ± 6.3", "unit": "% PfCRT3D7 control"}, {"measurement": "Uptake of [3H]CQ (% PfCRT3D7 control), cis-inhibition", "setting": "[9]; [test solute] = 2 mM", "value": "99 ± 5.3", "unit": "% PfCRT3D7 control"}]}
